Values of other authors as cited in patent publication US20260355230A1, “SODIUM BICARBONATE PRODUCT FOR CHILDBIRTH LABOR” (LAMINARIA GROUP AB, priority 2023, published 2026).

What was measured:
[1] = 4.26 g sodium bicarbonate dissolved in water, oral
[2] = large amounts, particularly as an aqueous solution

O=C([O-])O.[Na+] [sodium bicarbonate]
pH in maternal blood [1]: increased significantly
fetal outcome ([1]; vs untreated group): a difference in fetal outcome was shown between the two groups
frequency of spontaneous vaginal deliveries ([1]; vs untreated group): substantially higher
AFL levels ([1]; vs untreated group, AFL >10.1 mmol/L): fell significantly
gastrointestinal side-effect [2]: acute gastrointestinal (GI) distress
